Five molecules from PMC5540273, “Progress towards a public chemogenomic set for protein kinases and a call for contributions” (PLoS ONE, 2017) can be followed below.

Assay in all cases: KINOMEscan competition binding
One assay concerns the target BLK (Homo sapiens, UniProt P51451). The following applies: read-out: %Inh BLK.
In another assay the target is FGFR3 (Homo sapiens, UniProt P22607). The settings on record: read-out: %Inh FGFR3.
The target of the next assay is HIPK1 (Homo sapiens, UniProt Q86Z02). The following applies: read-out: %Inh HIPK1.
Another assay addresses T1, EPHA1 (Homo sapiens, UniProt P21709).
T1 sequence (P21709 26-976): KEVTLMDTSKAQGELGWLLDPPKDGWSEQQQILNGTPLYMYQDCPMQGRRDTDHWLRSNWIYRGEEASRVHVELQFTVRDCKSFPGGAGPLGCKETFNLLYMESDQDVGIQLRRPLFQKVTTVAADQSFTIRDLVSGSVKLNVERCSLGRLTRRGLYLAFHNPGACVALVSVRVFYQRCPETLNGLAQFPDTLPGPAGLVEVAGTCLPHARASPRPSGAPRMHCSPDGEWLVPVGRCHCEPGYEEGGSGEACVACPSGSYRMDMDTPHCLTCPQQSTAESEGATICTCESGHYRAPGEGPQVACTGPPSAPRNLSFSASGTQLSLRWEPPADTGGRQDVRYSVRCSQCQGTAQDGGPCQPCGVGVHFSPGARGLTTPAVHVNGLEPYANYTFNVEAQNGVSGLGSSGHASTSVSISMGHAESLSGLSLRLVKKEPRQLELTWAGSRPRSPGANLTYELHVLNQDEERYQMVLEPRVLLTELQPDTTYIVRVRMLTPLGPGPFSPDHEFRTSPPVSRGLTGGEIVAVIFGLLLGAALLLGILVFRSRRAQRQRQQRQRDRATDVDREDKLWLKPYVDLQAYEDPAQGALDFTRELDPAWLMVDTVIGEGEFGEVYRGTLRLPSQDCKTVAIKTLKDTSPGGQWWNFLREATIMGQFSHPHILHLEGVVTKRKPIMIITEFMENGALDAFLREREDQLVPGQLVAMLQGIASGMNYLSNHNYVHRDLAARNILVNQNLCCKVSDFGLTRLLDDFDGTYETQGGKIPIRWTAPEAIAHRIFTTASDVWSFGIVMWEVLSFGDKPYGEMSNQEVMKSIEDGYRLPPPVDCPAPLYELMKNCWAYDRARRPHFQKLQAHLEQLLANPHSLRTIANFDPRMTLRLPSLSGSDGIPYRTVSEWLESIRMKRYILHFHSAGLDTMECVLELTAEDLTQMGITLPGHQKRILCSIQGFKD
The settings on record: read-out: %Inh EPHA1.

A further assay deals with T2, CASK (Homo sapiens, UniProt O14936).
T2 sequence (O14936 1-926): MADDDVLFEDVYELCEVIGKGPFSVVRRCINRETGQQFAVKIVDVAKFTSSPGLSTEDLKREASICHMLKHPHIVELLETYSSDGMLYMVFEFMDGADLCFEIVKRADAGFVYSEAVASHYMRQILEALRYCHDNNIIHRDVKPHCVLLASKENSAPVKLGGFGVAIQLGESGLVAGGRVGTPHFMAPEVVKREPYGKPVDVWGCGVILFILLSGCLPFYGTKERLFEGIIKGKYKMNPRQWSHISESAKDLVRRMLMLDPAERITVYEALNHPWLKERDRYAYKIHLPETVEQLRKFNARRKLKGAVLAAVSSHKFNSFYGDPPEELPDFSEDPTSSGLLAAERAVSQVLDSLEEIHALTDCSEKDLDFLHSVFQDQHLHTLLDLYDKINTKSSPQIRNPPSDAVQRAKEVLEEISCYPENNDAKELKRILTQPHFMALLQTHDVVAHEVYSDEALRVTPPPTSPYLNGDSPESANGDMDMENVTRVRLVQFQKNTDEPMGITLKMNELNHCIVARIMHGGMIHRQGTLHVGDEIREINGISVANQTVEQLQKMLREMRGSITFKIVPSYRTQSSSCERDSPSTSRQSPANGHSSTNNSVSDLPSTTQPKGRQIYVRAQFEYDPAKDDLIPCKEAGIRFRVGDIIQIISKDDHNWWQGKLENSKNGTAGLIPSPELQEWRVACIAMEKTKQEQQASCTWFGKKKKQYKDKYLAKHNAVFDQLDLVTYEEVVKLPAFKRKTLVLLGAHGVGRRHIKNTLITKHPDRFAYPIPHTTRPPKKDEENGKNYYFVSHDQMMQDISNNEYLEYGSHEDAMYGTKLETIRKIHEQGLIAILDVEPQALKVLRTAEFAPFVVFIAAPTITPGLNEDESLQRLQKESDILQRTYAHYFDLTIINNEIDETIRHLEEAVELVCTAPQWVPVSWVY
The following applies: read-out: %Inh CASK.

The target in another assay is T3, DCAMKL3 (Homo sapiens, UniProt Q9C098).
T3 sequence (Q9C098 1-648): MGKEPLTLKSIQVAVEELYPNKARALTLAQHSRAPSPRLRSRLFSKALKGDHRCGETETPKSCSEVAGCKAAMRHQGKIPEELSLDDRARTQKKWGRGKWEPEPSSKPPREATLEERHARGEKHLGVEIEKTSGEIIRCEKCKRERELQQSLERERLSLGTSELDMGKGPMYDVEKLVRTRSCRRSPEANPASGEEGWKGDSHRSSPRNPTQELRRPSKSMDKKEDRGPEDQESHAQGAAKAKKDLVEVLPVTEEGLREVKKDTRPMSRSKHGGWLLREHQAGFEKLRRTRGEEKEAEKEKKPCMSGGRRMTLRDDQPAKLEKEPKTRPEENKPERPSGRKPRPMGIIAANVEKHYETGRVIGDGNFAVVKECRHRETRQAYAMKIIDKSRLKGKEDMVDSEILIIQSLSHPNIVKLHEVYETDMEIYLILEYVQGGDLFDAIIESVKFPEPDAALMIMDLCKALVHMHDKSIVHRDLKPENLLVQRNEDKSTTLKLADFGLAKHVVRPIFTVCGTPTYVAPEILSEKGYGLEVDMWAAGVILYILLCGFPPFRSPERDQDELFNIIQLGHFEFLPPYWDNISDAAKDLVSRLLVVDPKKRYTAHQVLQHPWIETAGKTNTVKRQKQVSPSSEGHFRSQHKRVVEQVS
The following applies: read-out: %Inh DCAMKL3.

A further assay addresses ERBB2 (Homo sapiens, UniProt P04626). The following applies: read-out: %Inh ERBB2.
The target of the next assay is ERK1 (Homo sapiens, UniProt P27361). The settings on record: read-out: %Inh ERK1.

The structures appear in SMILES notation.

BLK, sequence (P51451 whole entry): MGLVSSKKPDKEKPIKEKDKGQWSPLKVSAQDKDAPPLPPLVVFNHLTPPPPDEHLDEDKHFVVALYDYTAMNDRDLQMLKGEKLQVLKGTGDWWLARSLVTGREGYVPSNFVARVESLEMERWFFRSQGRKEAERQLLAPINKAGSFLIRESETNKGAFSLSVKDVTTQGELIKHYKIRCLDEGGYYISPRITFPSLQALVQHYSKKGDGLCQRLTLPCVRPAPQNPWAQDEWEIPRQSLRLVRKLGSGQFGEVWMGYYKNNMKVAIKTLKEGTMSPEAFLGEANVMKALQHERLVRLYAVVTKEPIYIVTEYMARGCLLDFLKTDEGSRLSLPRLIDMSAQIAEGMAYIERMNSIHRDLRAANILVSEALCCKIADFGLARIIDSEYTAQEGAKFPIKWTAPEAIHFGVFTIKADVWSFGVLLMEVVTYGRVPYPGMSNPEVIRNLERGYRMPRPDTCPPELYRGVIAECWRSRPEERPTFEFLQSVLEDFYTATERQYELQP
HIPK1, sequence (Q86Z02 whole entry): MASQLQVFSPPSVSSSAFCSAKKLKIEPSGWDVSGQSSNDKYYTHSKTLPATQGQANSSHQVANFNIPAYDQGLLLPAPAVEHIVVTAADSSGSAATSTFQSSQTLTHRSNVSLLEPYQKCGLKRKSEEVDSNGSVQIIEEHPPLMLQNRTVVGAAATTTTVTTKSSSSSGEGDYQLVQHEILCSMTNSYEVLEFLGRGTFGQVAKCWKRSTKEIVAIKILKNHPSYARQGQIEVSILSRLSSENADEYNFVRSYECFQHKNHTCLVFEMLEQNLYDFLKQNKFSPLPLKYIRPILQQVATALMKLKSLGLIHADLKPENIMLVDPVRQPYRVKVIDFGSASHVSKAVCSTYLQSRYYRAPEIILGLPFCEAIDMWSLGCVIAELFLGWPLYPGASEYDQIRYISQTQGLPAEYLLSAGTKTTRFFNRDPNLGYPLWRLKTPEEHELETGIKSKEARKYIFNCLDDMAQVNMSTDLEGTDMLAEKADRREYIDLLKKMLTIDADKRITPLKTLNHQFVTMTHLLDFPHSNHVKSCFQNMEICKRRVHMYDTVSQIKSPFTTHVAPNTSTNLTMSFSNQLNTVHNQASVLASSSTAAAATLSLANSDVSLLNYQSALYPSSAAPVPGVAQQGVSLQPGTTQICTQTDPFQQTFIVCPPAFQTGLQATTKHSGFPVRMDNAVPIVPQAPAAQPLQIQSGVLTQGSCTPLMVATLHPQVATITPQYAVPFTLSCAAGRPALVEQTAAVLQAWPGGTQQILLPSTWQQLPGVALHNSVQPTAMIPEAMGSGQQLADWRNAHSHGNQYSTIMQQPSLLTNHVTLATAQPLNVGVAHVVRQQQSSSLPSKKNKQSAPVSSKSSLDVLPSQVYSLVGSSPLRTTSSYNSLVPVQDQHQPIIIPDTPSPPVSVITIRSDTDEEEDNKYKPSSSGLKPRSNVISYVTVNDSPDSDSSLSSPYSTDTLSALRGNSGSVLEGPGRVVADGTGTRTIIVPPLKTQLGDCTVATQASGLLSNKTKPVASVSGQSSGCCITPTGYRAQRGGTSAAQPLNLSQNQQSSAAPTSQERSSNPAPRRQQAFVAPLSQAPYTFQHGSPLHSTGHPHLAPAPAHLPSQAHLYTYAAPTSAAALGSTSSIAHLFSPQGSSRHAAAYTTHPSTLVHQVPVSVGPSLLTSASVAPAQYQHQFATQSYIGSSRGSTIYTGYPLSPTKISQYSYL
FGFR3, sequence (P22607 23-806): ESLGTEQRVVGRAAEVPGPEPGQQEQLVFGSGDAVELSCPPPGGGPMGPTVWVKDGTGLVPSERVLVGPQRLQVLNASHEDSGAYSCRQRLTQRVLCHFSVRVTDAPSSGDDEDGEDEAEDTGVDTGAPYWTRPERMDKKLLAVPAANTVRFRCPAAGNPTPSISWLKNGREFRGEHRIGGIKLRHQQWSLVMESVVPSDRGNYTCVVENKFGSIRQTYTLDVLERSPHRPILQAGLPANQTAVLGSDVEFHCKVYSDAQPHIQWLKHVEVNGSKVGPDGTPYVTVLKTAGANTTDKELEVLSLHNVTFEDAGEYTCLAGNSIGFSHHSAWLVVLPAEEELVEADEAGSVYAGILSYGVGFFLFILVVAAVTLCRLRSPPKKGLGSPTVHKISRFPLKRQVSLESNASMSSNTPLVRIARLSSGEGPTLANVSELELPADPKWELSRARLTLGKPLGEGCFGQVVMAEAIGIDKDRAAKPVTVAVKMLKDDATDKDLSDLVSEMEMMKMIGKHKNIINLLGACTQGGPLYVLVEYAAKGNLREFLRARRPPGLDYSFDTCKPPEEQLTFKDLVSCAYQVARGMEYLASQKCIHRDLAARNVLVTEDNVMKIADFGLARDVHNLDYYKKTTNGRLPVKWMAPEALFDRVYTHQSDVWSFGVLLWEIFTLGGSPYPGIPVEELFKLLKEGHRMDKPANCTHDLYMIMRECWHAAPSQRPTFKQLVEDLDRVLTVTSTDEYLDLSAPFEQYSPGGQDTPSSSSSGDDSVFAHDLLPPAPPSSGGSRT
ERK1, sequence (P27361 whole entry): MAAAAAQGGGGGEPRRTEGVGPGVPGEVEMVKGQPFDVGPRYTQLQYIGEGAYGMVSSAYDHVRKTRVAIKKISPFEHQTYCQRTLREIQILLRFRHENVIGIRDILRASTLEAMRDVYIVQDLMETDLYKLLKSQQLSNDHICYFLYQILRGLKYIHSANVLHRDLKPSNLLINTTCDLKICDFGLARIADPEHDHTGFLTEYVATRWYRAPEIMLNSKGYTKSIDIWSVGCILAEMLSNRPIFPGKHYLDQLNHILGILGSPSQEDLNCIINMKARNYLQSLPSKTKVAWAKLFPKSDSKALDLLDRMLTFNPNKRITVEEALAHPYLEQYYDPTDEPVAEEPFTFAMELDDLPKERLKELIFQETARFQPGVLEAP
ERBB2, sequence (P04626 23-1255): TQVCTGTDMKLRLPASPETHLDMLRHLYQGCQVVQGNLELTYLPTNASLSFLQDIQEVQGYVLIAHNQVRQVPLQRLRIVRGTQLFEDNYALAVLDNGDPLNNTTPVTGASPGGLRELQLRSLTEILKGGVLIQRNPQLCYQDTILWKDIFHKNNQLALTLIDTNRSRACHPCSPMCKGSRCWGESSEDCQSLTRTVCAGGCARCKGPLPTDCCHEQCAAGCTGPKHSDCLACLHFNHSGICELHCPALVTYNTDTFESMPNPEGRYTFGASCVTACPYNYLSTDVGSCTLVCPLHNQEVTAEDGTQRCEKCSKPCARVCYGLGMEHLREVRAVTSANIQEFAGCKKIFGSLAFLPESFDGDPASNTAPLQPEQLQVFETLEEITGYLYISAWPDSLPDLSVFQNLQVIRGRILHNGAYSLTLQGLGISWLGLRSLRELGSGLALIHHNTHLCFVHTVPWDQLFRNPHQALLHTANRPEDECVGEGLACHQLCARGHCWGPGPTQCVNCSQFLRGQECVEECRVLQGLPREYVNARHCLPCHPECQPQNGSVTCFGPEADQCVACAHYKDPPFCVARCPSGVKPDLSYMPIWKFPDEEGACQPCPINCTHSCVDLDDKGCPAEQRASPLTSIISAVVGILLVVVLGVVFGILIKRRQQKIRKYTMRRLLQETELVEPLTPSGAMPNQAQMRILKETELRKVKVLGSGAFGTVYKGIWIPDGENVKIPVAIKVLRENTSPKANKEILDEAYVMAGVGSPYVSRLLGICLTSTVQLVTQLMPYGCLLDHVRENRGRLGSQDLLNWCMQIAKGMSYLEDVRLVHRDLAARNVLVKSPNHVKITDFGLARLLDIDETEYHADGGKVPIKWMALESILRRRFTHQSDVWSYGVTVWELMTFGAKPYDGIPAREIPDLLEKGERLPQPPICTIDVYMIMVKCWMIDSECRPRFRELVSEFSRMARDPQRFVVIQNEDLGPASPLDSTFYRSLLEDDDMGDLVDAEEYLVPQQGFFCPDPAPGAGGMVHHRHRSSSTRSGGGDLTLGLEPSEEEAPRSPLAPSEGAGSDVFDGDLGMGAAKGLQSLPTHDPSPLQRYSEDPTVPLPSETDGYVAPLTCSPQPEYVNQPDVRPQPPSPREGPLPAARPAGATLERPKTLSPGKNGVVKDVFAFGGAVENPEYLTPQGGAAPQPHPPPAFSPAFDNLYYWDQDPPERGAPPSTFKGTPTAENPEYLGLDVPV

On to `O=c1cc(N2CCOCC2)nc2n(Cc3cccc(Cl)c3Cl)c(C3CC3)nn12` [UNC10225469A], for which the inhibition at 1 µM at BLK came to 0%; at FGFR3, 0%; on HIPK1 it was 16%; at EPHA1, 7%; on CASK, 26%; at DCAMKL3, 17%. Moreover, the inhibition at 1 µM at ERBB2 and at ERK1 was 0% each time.
For the molecule `COc1cccc(OC)c1C(=O)Nc1cccc(-c2nn3ccccc3c2-c2ccnc(Nc3cccc(F)c3)n2)c1` [UNC10225310A], the inhibition at 1 µM turned out to be 41% on BLK; 0% on FGFR3; 31% at HIPK1; 4% on EPHA1; 15% on CASK; 16% at DCAMKL3. Besides, the inhibition at 1 µM on ERBB2 was determined as 61%; at ERK1, 1%.
As to `CS(=O)(=O)Cc1ccc(Nc2nccc(-c3c(-c4cccc(NC(=O)C5CCCCC5)c4)nn4ncccc34)n2)cc1` [UNC10225159A], the inhibition at 1 µM was 0% on BLK; 16% on FGFR3; 5% at HIPK1; 6% at EPHA1; 34% at CASK; 0% at DCAMKL3. In addition, the inhibition at 1 µM on ERBB2 was found to be 25%; at ERK1 it was 2%.
Turning to `Cc1ccc(NC(=O)Nc2cccc(C(F)(F)F)c2)cc1` [UNC10225187A], the inhibition at 1 µM at BLK came out at 0%; on FGFR3 it was 5%; at HIPK1 it was 8%; at EPHA1, 17%; at CASK, 15%; at DCAMKL3, 13%. Further, the inhibition at 1 µM on ERBB2 and at ERK1 was 0% in each case.
On to `Cn1cc(-c2cnc(N)c3c(-c4ccc5c(c4)CCN5C(=O)Cc4ccccc4)csc23)cn1` [UNC10225012A], for which the inhibition at 1 µM on BLK was determined as 93%; on FGFR3, 49%; on HIPK1, 21%; on EPHA1, 11%; at CASK, 23%; at DCAMKL3, 5%. Also, the inhibition at 1 µM on ERBB2 and on ERK1 was 0% in each case.
